Here are results for 2 compounds from article PMC5563081, “Modulating Protein-Protein Interactions of the Mitotic Polo-like Kinases to Target Mutant KRAS” (Cell Chemical Biology, 2017).

One experiment concerns HeLa cells. Nature of the experiment: Mitotic index assay in HeLa cells. The class given is cell-based, human. As to conditions: for EC50: Homo sapiens. As to the method: Cells were plated at 10 000/well in 96-well plates and incubated overnight. The following day compound stocks in DMSO were diluted in medium then added to cells with a maximum final DMSO concentration on cells of 0.2%. […] Cells were permeabilised with 0.1% Triton X-100 then incubated with anti-phospho-histone H3 (Ser10) antibody (Abcam ab5176). The cells were washed with PBS then incubated with AlexaFluor 488 labelled goat anti-rabbit IgG (Invitrogen A11034) in the presence of 4ug/ml Hoechst 33342 (Invitrogen H3570). Cells were washed in PBS then imaged on an Arrayscan VTi HCS instrument (Thermo Fisher) using the Target Activation V4 Bioapplication. A user-defined threshold was applied to identify mitotic cells based on the intensity of phospho-histone H3 staining.

Experiment [1] deals with T1, NanoLuc-PLK1 fusion protein (Homo sapiens, UniProt P53350).
T1 construct: NanoLuc fused to the N-termini of full-length human PLK1, PLK2, PLK3, PLK4 or p38α MAPK; expressed in transfected cells; host or cells: HeLa, transient, digitonin-permeabilised
T1 sequence (P53350 whole entry, the tested form may be a part): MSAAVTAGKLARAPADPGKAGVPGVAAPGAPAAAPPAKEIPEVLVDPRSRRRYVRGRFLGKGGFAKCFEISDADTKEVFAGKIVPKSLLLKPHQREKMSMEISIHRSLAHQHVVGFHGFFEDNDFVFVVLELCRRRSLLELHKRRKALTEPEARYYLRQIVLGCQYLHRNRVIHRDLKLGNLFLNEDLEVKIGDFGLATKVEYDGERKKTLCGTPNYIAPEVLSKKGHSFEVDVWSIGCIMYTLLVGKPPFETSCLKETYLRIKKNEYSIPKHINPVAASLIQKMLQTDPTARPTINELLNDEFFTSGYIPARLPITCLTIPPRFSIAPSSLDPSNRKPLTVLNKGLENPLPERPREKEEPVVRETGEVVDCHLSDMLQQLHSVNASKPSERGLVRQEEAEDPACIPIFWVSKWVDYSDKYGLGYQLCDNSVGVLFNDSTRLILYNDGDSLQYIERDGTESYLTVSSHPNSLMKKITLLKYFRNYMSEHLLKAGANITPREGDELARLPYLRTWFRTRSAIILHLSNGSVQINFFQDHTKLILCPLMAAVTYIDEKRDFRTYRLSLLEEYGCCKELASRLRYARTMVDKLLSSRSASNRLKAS
Nature of the experiment: NanoLuc thermal shift assay. The class given is cell-based. The following applies: compound at 100 μM. As to the method:
(§1) HeLa cells were transfected with plasmids encoding NanoLuc fused to the N-termini of full-length human PLK1, PLK2, PLK3, PLK4 or p38α MAPK. Twenty-four h after transfection, the thermal stability of the fusion proteins was tested using a modified version of the assay protocol supplied by Promega. Briefly, cells were harvested by tyrpsinisation and centrifugation, counted, and resuspended to 200,000 cells/ml in 3mls of serum-free OptiMEM media. Cells were then permeabilised using with 50ug/ml digitonin in DMSO for 5 min and incubated with test compounds at 100uM, plus protease inhibitor cocktail (Promega G6521), in a final concentration of 5% DMSO for 1 h at 37°C. After incubation, 100 μl/well of cells were aliquoted into a 96-well, thin-walled PCR plate and then heated for 3 minutes using a pre-warmed MJ Tetrad DNA Engine set to run a temperature gradient of 42 to 66°C. The plates were then cooled to room temperature for 10 min, and then 80μl of each sample was transferred to a white-walled 96-well Nunc plate before NanoBRET™ NanoGlo Substrate diluted in Opti-MEM was added. NanoLuc enzyme activity was read out within 10 min using a BMG Clariostar plate reader.
(§2) Nanoluciferase enzyme activity of PLK1- or PLK4-Nanoluc fusion protein was analysed using GraphPad Prism. Data were normalised as follows: (treatment A RLU value at X°C temp/treatment A RLU value at 42°C temp) x 100. Using the Boltzmann sigmoidal equation, a curve was then fitted to the normalised data. From this non-linear fit, a V50 value was generated, which in this context represents the aggregation onset temperature (Tagg), at which 50% of the PLK1- or PLK4-Nanoluc fusion protein has aggregated.

Experiment [2] addresses T2, NanoLuc-PLK4 fusion protein (Homo sapiens, UniProt O00444).
T2 construct: NanoLuc fused to the N-termini of full-length human PLK1, PLK2, PLK3, PLK4 or p38α MAPK; expressed in transfected cells; host or cells: HeLa, transient, digitonin-permeabilised
T2 sequence (O00444 1-970): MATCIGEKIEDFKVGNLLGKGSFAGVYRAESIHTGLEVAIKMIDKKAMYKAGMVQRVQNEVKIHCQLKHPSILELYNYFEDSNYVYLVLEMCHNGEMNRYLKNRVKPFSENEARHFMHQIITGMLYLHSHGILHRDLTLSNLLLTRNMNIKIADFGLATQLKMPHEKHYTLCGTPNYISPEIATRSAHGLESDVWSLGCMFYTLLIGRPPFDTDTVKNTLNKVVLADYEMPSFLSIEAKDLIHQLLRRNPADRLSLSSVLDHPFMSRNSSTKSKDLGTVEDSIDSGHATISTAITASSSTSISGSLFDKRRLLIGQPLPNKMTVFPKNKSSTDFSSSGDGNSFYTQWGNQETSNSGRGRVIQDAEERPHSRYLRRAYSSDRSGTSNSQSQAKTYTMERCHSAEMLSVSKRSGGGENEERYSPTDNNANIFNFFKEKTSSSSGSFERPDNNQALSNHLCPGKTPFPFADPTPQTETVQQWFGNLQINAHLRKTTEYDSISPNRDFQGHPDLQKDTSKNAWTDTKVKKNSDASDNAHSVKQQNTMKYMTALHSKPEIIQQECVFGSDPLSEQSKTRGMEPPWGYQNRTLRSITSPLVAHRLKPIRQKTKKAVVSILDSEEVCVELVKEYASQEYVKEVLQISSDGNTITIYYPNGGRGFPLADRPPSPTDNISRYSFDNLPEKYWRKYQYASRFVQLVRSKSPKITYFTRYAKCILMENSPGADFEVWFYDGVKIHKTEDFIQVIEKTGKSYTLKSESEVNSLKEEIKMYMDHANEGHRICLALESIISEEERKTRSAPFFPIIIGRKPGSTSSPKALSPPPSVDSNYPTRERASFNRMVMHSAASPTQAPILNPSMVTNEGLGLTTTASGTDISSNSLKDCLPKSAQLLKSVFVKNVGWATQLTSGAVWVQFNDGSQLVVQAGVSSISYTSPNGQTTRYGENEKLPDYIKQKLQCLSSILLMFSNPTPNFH
Description: NanoLuc thermal shift assay. The class given is cell-based. The following applies: compound at 100 μM. Here is the method:
as §1, §2

The mark [3] stands for this setting: HeLa, Figure 5A, read-out: MI EC50 (cellular assay for mitotic arrest).

Where two headings read alike, the source gives them in different places.

As to `CN(C)CCNC(=O)c1ccc(-c2ccc(-c3ccc(Cl)cc3)n2-c2ccccc2C(F)(F)F)cc1` [Poloppin-II], the EC50 with HeLa cells (setting [3]) stood at 69 nM; with HeLa cells (HeLa cells, Figure 5B, read-out: half maximal effective concentration, cellular assay for mitotic arrest) it was 61 nM. Moreover, the “thermal stability of NanoLuc-PLK1” value in experiment [1] is listed as “engages”. The “thermal stability of NanoLuc-PLK4” value in experiment [2] is recorded as “engages”.

On to `O=C(O)CCc1ccc(-c2ccc(Br)cc2)n1-c1ccccc1C(F)(F)F` [Poloppin], for which, in the experiment with HeLa cells (HeLa cells treated for 16 hr, Figure 5B), the “EC50, mitotic index assay” value is 14600 nM. Besides, the EC50 with HeLa cells (setting [3]) stood at 14100 nM. In experiment [1], the “thermal stability of NanoLuc-PLK1” value was “increases the thermal stability”. The “thermal stability of NanoLuc-PLK4” value in experiment [2] is reported as “increases the thermal stability”.
